Measurements from ChEMBL document CHEMBL3232805, “Alkaloids from the roots of Stichoneuron caudatum and their acetylcholinesterase inhibitory activities” (J Nat Prod, 2014).

Target: Acetylcholinesterase (Homo sapiens, UniProt P22303)
Experiment: Inhibition of human AChE by spectrophotometry

Chain of Acetylcholinesterase (P22303 whole entry): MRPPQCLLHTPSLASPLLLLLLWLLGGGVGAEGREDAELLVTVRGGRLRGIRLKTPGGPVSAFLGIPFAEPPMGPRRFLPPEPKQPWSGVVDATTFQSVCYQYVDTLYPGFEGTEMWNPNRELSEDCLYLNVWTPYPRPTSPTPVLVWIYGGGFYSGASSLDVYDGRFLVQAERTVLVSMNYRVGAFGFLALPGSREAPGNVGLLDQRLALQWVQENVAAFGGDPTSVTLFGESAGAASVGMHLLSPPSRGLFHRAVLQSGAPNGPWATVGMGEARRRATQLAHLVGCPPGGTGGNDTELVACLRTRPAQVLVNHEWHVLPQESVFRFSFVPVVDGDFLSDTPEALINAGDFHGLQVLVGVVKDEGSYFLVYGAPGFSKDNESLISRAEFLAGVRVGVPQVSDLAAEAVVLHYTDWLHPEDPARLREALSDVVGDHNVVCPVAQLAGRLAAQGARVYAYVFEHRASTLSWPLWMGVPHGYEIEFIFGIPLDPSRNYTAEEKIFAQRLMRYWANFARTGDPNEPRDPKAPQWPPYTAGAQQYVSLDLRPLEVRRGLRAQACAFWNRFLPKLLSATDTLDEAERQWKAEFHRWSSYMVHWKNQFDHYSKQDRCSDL

Compound | IC50
CC[C@H]1[C@H](C[C@H](C)C(=O)OC)O[C@]23CC[C@@H]([C@@H]4C[C@H](C)C(=O)O4)N2CCCC[C@H]13 | 71.5 µM
CC[C@H]1[C@H](C[C@H](C)C(=O)OC)O[C@]23CC[C@@H]([C@@H]4C[C@H](C)C(=O)O4)N2CCCC[C@]13O | > 100 µM
CC[C@H]1[C@H]2OC(=O)[C@](C)(O)[C@H]2[C@]23CC[C@@H]([C@@H]4C[C@@H](C)C(=O)O4)N2CCCC[C@@H]13 | 9.1 µM
CC[C@@H]1[C@H]2OC(=O)[C@](C)(O)[C@H]2[C@]23CC[C@@H]([C@@H]4C[C@@H](C)C(=O)O4)N2CCCC[C@@H]13 | > 100 µM
CC[C@@H]1[C@H]2OC(=O)[C@@](C)(O)[C@H]2[C@]23CC[C@@H]([C@@H]4C[C@H](C)C(=O)O4)N2CCCC[C@H]13 | 68.8 µM
CC[C@H]1[C@@H]2OC(=O)[C@@](C)(O)[C@@H]2[C@@]23CC[C@@H]([C@@H]4C[C@H](C)C(=O)O4)N2CCCC[C@H]13 | 17.1 µM
CC[C@H]1[C@H]2OC(=O)[C@@](C)(O)[C@H]2[C@]23CC[C@@H]([C@@H]4C[C@H](C)C(=O)O4)N2CCCC[C@H]13 | > 100 µM
